Laboratory results taken from US6576247B1, “Sustained-release aromatic and method of detecting micro-organism by using the same” (Kanebo Ltd. and T. Hasegawa Co. Ltd., priority 1994, dated 2003).

Columns and labels:
[1] = system: Coryneform bacteria (Corynebacterium); test: Glycoside decomposition ability test of Coryneform bacteria; assay type: cell-based; details: for Detected component and its amount: 2-phenylethyl alcohol: 32° C., glycoside 0.5% by weight in SCD liquid medium, GC-FID
Procedure: Each of the glycosides synthesized in Synthesis Examples 1 to 3 was added to a soybean casein digest liquid medium (SCD liquid medium) at an amount of 0.5% by weight based on the medium. To the liquid medium was inoculated 2% of bacterial liquid of Coryneform bacteria which had been precultured in an SCD liquid medium. This was cultured at 32° C. in a static state. The culture liquid was sampled after 2 days and 4 days culture and sterizing treatment was conducted on a conventional manner. After the sterizing treatment, aroma components were extracted with the same volume of diethyl ether as that of the culture liquid sampled. The structure of the components was identified on a GC-MS. The amount of the components released was determined on a GC with a detector of FID.

Saccharomyces cerevesiae = test: Perfume glycoside decomposition ability test of bread yeast; assay type: cell-based; details: glycoside 0.5% by weight in 15% sucrose solution, yeast 7% by weight, 4° C.
Procedure: Saccharomyces cerevesiae which had been cultured at 30° C. for 1 hour was added, at a concentration of 7% by weight, to a 15% by weight sucrose aqueous solution each containing the glycosides prepared in Synthesis Examples 2, 4 or 5 in an amount of 0.5% by weight. This was cultured at 4° C. while shaked. After 15 minutes and 4 hours culture, the culture liquid was sampled and centrifuged to precipitate the yeast. The supernatant was then extracted with the same volume of diethyl ether as that of the supernatant. The structure of the aroma components was identified on a GC-MS. The amount of the component released was determined on a GC with a detector of FID.

OC[C@H]1O[C@H](OCCc2ccccc2)[C@H](O)[C@@H](O)[C@@H]1O [2-phenylethylglucoside (α-form), 2-Phenylethyl Glucoside (α-form)]
Detected component and its amount: 2-phenylethyl alcohol ([1]; after 2 days culture): 0.01 peak area × 10^6 | Detected component and its amount: 2-phenylethyl alcohol ([1]; after 4 days culture): 0.3 peak area × 10^6 | Amount of aroma components (Saccharomyces cerevesiae; after 15 minutes culture): 0.4 peak area × 10^5 | Amount of aroma components (Saccharomyces cerevesiae; after 4 hours culture): 1.6 peak area × 10^5

OC[C@H]1O[C@@H](OCCc2ccccc2)[C@H](O)[C@@H](O)[C@@H]1O [2-phenylethylglucoside (β-form), 2-Phenylethyl Glucoside (βform)]
Detected component and its amount: 2-phenylethyl alcohol ([1]; after 2 days culture): 1.1 peak area × 10^6 | Detected component and its amount: 2-phenylethyl alcohol ([1]; after 4 days culture): 8.0 peak area × 10^6

CC(C)=CCCC(C)CCO[C@@H]1O[C@H](CO)[C@@H](O)[C@H](O)[C@H]1O (stereo partly drawn) [citronellyl glucoside (β-form), Citronellyl Glucoside (β-form)]
Amount of aroma components (Saccharomyces cerevesiae; after 15 minutes culture): 2.6 peak area × 10^5 | Amount of aroma components (Saccharomyces cerevesiae; after 4 hours culture): 8.8 peak area × 10^5

C=CCc1ccc(O[C@@H]2O[C@H](CO)[C@@H](O)[C@H](O)[C@H]2O)c(OC)c1 [eugenyl glucoside (β-form), Eugenyl Glucoside (β-form)]
Amount of aroma components (Saccharomyces cerevesiae; after 15 minutes culture): 0.5 peak area × 10^5 | Amount of aroma components (Saccharomyces cerevesiae; after 4 hours culture): 1.3 peak area × 10^5

COc1cc(C=O)ccc1O[C@@H]1O[C@H](CO)[C@@H](O)[C@H](O)[C@H]1O [glucovanillin (β-form), Glucovanillin (β-form)]
Detected component and its amount: vanillin ([1]; after 2 days culture): 0.01 peak area × 10^6 | Detected component and its amount: vanillyl alcohol ([1]; after 2 days culture): 0 peak area × 10^6 | Detected component and its amount: vanillin ([1]; after 4 days culture): 1.75 peak area × 10^6 | Detected component and its amount: vanillyl alcohol ([1]; after 4 days culture): 0.2 peak area × 10^6
